biological target: T1, human full-length MKNK1 (Homo sapiens, UniProt Q9BUB5, T385D); assay: MKNK1 kinase high ATP assay (TR-FRET); format: biochemical; details: not given
T1 construct: GST (N); purchased Carna Biosciences 02-145; host or cells: insect cells (baculovirus expression system)
Experimental: MKNK1 Kinase High ATP Assay
MKNK1-inhibitory activity at high ATP of compounds of the present invention after their preincubation with MKNK1 was quantified employing the TR-FRET-based MKNK1 high ATP assay as described in the following paragraphs.
As substrate for the kinase reaction the biotinylated peptide biotin-Ahx-[…] (C-terminus in amide form) was used, which can be purchased e.g. from the company Biosyntan (Berlin-Buch, Germany).
For the assay 50 nL of a 100 fold concentrated solution of the test compound in DMSO was pipetted into a black low volume 384 well microtiter plate (Greiner Bio-One, Frickenhausen, Germany), 2 μL of a solution of MKNK1 in aqueous assay buffer [50 mM HEPES pH 7.5, 5 mM MgCl2, 1.0 mM dithiothreitol, 0.005% (v/v) Nonidet-P40 (Sigma)] was added and the mixture was incubated for 15 min at 22° C. to allow pre-binding of the test compounds to the enzyme before the start of the kinase reaction. Then the kinase reaction was started by the addition of 3 μL of a solution of adenosine-tri-phosphate (ATP, 3.3 mM=>final conc. in the 5 μL assay volume is 2 mM) and substrate (0.1 μM=>final conc. in the 5 μL assay volume is 0.06 μM) in assay buffer and the resulting mixture was incubated for a reaction time of 30 min at 22° C. The concentration of MKNK1 was adjusted depending of the activity of the enzyme lot and was chosen appropriate to have the assay in the linear range, typical concentrations were in the range of 0.003 μg/mL. The reaction was stopped by the addition of 5 μL of a solution of TR-FRET detection reagents (5 nM streptavidine-XL665 [Cisbio Bioassays, Codolet, France] and 1 nM anti-ribosomal protein S6 (pSer236)-antibody from Invitrogen [#44921G] and 1 nM LANCE EU-W1024 labeled ProteinG [Perkin-Elmer, product no. AD0071]) in an aqueous EDTA-solution (100 mM EDTA, 0.1% (w/v) bovine serum albumin in 50 mM HEPES pH 7.5).
The resulting mixture was incubated for 1 h at 22° C. to allow the formation of complex between the phosphorylated biotinylated peptide and the detection reagents. Subsequently the amount of phosphorylated substrate was evaluated by measurement of the resonance energy transfer from the Eu-chelate to the streptavidine-XL. Therefore, the fluorescence emissions at 620 nm and 665 nm after excitation at 350 nm were measured in a TR-FRET reader, e.g. a Rubystar (BMG Labtechnologies, Offenburg, Germany) or a Viewlux (Perkin-Elmer). The ratio of the emissions at 665 nm and at 622 nm was taken as the measure for the amount of phosphorylated substrate.

T1 sequence (Q9BUB5 1-424 isoform Q9BUB5-2 T344D): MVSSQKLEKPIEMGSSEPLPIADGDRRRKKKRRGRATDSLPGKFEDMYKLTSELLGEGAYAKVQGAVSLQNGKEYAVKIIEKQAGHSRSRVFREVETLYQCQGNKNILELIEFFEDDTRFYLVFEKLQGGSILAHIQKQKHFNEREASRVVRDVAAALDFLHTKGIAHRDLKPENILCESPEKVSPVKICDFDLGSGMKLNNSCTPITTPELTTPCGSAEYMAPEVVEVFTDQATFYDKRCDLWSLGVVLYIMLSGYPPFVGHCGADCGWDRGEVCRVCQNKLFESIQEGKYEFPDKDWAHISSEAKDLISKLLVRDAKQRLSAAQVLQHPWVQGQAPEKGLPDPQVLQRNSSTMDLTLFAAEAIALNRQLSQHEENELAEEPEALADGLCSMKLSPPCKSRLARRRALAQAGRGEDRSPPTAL

Q: `Cc1cc(Nc2ncnc3sc4c(c23)CC[C@H](C(=O)N2CCC(=O)CC2)C4)c(=O)n2c1C(=O)NC21CCCCC1` [Example 10, 8′-Methyl-6′-({(7S)-7-[(4-oxopiperidin-1-yl)carbonyl]-5,6,7,8-tetrahydro[1]benzothieno[2,3-d]pyrimidin-4-yl}amino)-2′H-spiro[cyclohexane-1,3′-imidazo[1,5-a]pyridine]-1′,5′-dione] was tested. Which IC50 did it give?
A: The IC50 was 0.3 nM.

same assay, conditions: TR-FRET, 2 mM ATP (high ATP), 15 min preincubation with enzyme, 30 min reaction at 22° C.; read-out: MKNK1 IC50

Q: Which IC50 does the source give for `Cc1cc(Nc2ncnc3sc4c(c23)CC[C@H](C(=O)N2CC[C@H](N(C)C)C2)C4)c(=O)n2c1C(=O)NC21CS(=O)(=O)C1` [Example 70, 6-{[(7S)-7-{[(3S)-3-(Dimethylamino)pyrrolidin-1-yl]carbonyl}-5,6,7,8-tetrahydro[1]benzothieno[2,3-d]pyrimidin-4-yl]amino}-8-methyl-2H-spiro[imidazo[1,5-a]pyridine-3,3′-thietane]-1,5-dione 1′,1′-dioxide] here?
A: The IC50 was 0.8 nM.

Q: Which IC50 does the source give for `Cc1cc(Nc2ncnc3sc4c(c23)CC[C@H](C(=O)N(C)C)C4)c(=O)n2c1C(=O)NC21CS(=O)(=O)C1` [Example 66, (7S)—N,N-Dimethyl-4-[(8-methyl-1′,1′-dioxido-1,5-dioxo-1,5-dihydro-2H-spiro[imidazo[1,5-a]pyridine-3,3′-thietan]-6-yl)amino]-5,6,7,8-tetrahydro[1]benzothieno[2,3-d]pyrimidine-7-carboxamide] here?
A: Its IC50 is 3.1 nM.

Q: With `NC(=O)[C@H]1CCc2c(sc3ncnc(Nc4cc(Cl)c5n(c4=O)C4(CCCC4)NC5=O)c23)C1` [Example 85, (7S)-4-[(8′-Chloro-1′,5′-dioxo-1′,5′-dihydro-2′H-spiro[cyclopentane-1,3′-imidazo[1,5-a]pyridin]-6′-yl)amino]-5,6,7,8-tetrahydro[1]benzothieno[2,3-d]pyrimidine-7-carboxamide] as the compound, how does the IC50 read?
A: The IC50 was 0.2 nM.

Q: With `C[C@@H]1COCCN1C(=O)[C@H]1CCc2c(sc3ncnc(Nc4cc(Cl)c5n(c4=O)C(C)(C)NC5=O)c23)C1` [Example 117, 8-chloro-3,3-dimethyl-6-({(7S)-7-[(3R)-3-methylmorpholine-4-carbonyl]-5,6,7,8-tetrahydro[1]benzothieno[2,3-d]pyrimidin-4-yl}amino)-2,3-dihydroimidazo[1,5-a]pyridine-1,5-dione] as the compound, how does the IC50 read?
A: Its IC50 is 0.4 nM.

Q: `O=C1NC2(CCCC2)n2c1c(Cl)cc(Nc1ncnc3sc4c(c13)CC[C@H](C(=O)N1CCC1)C4)c2=O` [Example 87, 6′-{[(7S)-7-(Azetidine-1-carbonyl)-5,6,7,8-tetrahydro[1]benzothieno[2,3-d]pyrimidin-4-yl]amino}-8′-chloro-2′H-spiro[cyclopentane-1,3′-imidazo[1,5-a]pyridine]-1′,5′-dione] was tested. Which IC50 did it give?
A: Its IC50 is 0.2 nM.

Q: How did the IC50 turn out when `Cc1cc(Nc2ncnc3sc4c(c23)CC[C@H](C(=O)N2CC(N)C2)C4)c(=O)n2c1C(=O)NC21CCCCC1` [Example 11, 6′-({(7S)-7-[(3-Aminoazetidin-1-yl)carbonyl]-5,6,7,8-tetrahydro[1]benzothieno[2,3-d]pyrimidin-4-yl}amino)-8′-methyl-2′H-spiro[cyclohexane-1,3′-imidazo[1,5-a]pyridine]-1′,5′-dione] was run?
A: Its IC50 is 0.5 nM.

Q: With `Cc1cc(Nc2ncnc3sc4c(c23)CC[C@H](C(=O)N(C)C)C4)c(=O)n2c1C(=O)NC21CCC(F)(F)CC1` [Example 52, (7S)-4-[(4,4-Difluoro-8′-methyl-1′,5′-dioxo-1′,5′-dihydro-2′H-spiro[cyclohexane-1,3′-imidazo[1,5-a]pyridin]-6′-yl)amino]-N,N-dimethyl-5,6,7,8-tetrahydro[1]benzothieno[2,3-d]pyrimidine-7-carboxamide] as the compound, how does the IC50 read?
A: Its IC50 is 0.6 nM.

Q: With `Cc1cc(Nc2ncnc3sc4c(c23)CC[C@H](C(=O)N2CC[C@H](N(C)C)C2)C4)c(=O)n2c1C(=O)NC21CCC(F)(F)CC1` [Example 56, 6′-{[(7S)-7-{[(3S)-3-(Dimethylamino)pyrrolidin-1-yl]carbonyl}-5,6,7,8-tetrahydro[1]benzothieno[2,3-d]pyrimidin-4-yl]amino}-4,4-difluoro-8′-methyl-2′H-spiro[cyclohexane-1,3′-imidazo[1,5-a]pyridine]-1′,5′-dione] as the compound, how does the IC50 read?
A: The IC50 was 2 nM.

Q: Which IC50 does the source give for `Cc1cc(Nc2ncnc3sc4c(c23)CC[C@H](C(=O)N2CC(N(C)C)C2)C4)c(=O)n2c1C(=O)NC21CCCCC1` [Example 19, 6′-{[(7S)-7-{[3-(Dimethylamino)azetidin-1-yl]carbonyl}-5,6,7,8-tetrahydro[1]benzothieno[2,3-d]pyrimidin-4-yl]amino}-8′-methyl-2′H-spiro[cyclohexane-1,3′-imidazo[1,5-a]pyridine]-1′,5′-dione] here?
A: Its IC50 is 0.9 nM.

Q: `C[C@@H]1CN(C(=O)[C@H]2CCc3c(sc4ncnc(Nc5cc(Cl)c6n(c5=O)C5(CCCC5)NC6=O)c34)C2)CCN1C` [Example 91, 8′-Chloro-6′-({(7S)-7-[(3R)-3,4-dimethylpiperazine-1-carbonyl]-5,6,7,8-tetrahydro[1]benzothieno[2,3-d]pyrimidin-4-yl}amino)-2′H-spiro[cyclopentane-1,3′-imidazo[1,5-a]pyridine]-1′,5′-dione] was tested. Which IC50 did it give?
A: The IC50 was less than 0.1 nM.

Q: Which IC50 does the source give for `Cc1cc(Nc2ncnc3sc4c(c23)CC[C@H](C(=O)N2C[C@H]3C[C@@H]2CO3)C4)c(=O)n2c1C(=O)NC21CCCC1` [Example 36, 8′-Methyl-6′-({(7S)-7-[(1R,4R)-2-oxa-5-azabicyclo[2.2.1]hept-5-ylcarbonyl]-5,6,7,8-tetrahydro[1]benzothieno[2,3-d]pyrimidin-4-yl}amino)-2′H-spiro[cyclopentane-1,3′-imidazo[1,5-a]pyridine]-1′,5′-dione] here?
A: Its IC50 is 1.3 nM.

Q: How did the IC50 turn out when `CN(C)C(=O)[C@H]1CCc2c(sc3ncnc(Nc4cc(Cl)c5n(c4=O)C4(CSC4)NC5=O)c23)C1` [Example 102, (7S)-4-[(8-Chloro-1,5-dioxo-1,5-dihydro-2H-spiro[imidazo[1,5-a]pyridine-3,3′-thietan]-6-yl)amino]-N,N-dimethyl-5,6,7,8-tetrahydro[1]benzothieno[2,3-d]pyrimidine-7-carboxamide] was run?
A: Its IC50 is 0.2 nM.

Q: How did the IC50 turn out when `NC(=O)[C@H]1CCc2c(sc3ncnc(Nc4cc(Cl)c5n(c4=O)C4(CSC4)NC5=O)c23)C1` [Example 119, (7S)-4-[(8-chloro-1,5-dioxo-1,5-dihydro-2H-spiro[imidazo[1,5-a]pyridine-3,3′-thietan]-6-yl)amino]-5,6,7,8-tetrahydro[1]benzothieno[2,3-d]pyrimidine-7-carboxamide] was run?
A: Its IC50 is 0.9 nM.

Q: With `NC(=O)[C@H]1CCc2c(sc3ncnc(Nc4cc(Cl)c5n(c4=O)C4(CCC4)NC5=O)c23)C1` [Example 94, (7S)-4-[(8′-Chloro-1′,5′-dioxo-1′,5′-dihydro-2′H-spiro[cyclobutane-1,3′-imidazo[1,5-a]pyridin]-6′-yl)amino]-5,6,7,8-tetrahydro[1]benzothieno[2,3-d]pyrimidine-7-carboxamide] as the compound, how does the IC50 read?
A: Its IC50 is 0.2 nM.

Q: How did the IC50 turn out when `O=C1NC2(CCCCC2)n2c1c(Cl)cc(Nc1ncnc3sc4c(c13)CC[C@H](C(=O)O)C4)c2=O` [Example 73, (7S)-4-[(8′-Chloro-1′,5′-dioxo-1′,5′-dihydro-2′H-spiro[cyclohexane-1,3′-imidazo[1,5-a]pyridin]-6′-yl)amino]-5,6,7,8-tetrahydro[1]benzothieno[2,3-d]pyrimidine-7-carboxylic acid] was run?
A: Its IC50 is 1.6 nM.

Q: With `Cc1cc(Nc2ncnc3sc4c(c23)CC[C@H](C(=O)N(C)C)C4)c(=O)n2c1C(=O)N[C@]21CC[C@@](O)(C(F)(F)F)CC1` [Example 60, (7S)-4-{[(cis)-4-Hydroxy-8′-methyl-1′,5′-dioxo-4-(trifluoromethyl)-1′,5′-dihydro-2′H-spiro[cyclohexane-1,3′-imidazo[1,5-a]pyridin]-6′-yl]amino}-N,N-dimethyl-5,6,7,8-tetrahydro[1]benzothieno[2,3-d]pyrimidine-7-carboxamide] as the compound, how does the IC50 read?
A: Its IC50 is 9.5 nM.

Q: `CN(C)C(=O)[C@H]1CCc2c(sc3ncnc(Nc4cc(Cl)c5n(c4=O)C4(CCCCC4)NC5=O)c23)C1` [Example 75, (7S)-4-[(8′-Chloro-1′,5′-dioxo-1′,5′-dihydro-2′H-spiro[cyclohexane-1,3′-imidazo[1,5-a]pyridin]-6′-yl)amino]-N,N-dimethyl-5,6,7,8-tetrahydro[1]benzothieno[2,3-d]pyrimidine-7-carboxamide] was tested. Which IC50 did it give?
A: Its IC50 is 1.7 nM.

Q: For `CN(C)[C@H]1CCN(C(=O)[C@H]2CCc3c(sc4ncnc(Nc5cc(Cl)c6n(c5=O)C(C)(C)NC6=O)c34)C2)C1` [Example 114, 8-Chloro-6-({(7S)-7-[(3S)-3-(dimethylamino)pyrrolidine-1-carbonyl]-5,6,7,8-tetrahydro[1]benzothieno[2,3-d]pyrimidin-4-yl}amino)-3,3-dimethyl-2,3-dihydroimidazo[1,5-a]pyridine-1,5-dione], which IC50 is on record?
A: Its IC50 is less than 0.1 nM.
